Experiment [1] has as its system Colletotrichum gloeosporioides. The experiment can be described thus: Activity against Colletotrichum gloeosporioides in plates. The class given is cell-based. The method, then: (§1) Colby's method is used to determine if synergy exists for a combination of active ingredients. According to Colby, the expected action (E) of active ingredients A+B is: [formula] • where E=expected efficacy, A and B=the efficacy of two active ingredients A and B at a given dose. When the percentage of control observed (O) for the combination is greater than the expected (E) percentage, there is a synergistic effect. The synergism ratio (R) is calculated as the ratio between the expected values and observed values. […] The compositions were diluted with water. Each formulation with active ingredient is diluted with water and biological efficacy trials on target fungi are conducted.

Experiment [2] deals with Ramularia collo-cygni. Put plainly: Activity against Ramularia collo-cygni in plates. The class given is cell-based. How it is done: as §1
Experiment [3] concerns Botrytis cinerea. The experiment can be described thus: Activity against Botrytis cinerea in plates. The class given is cell-based. How it is done: as §1
Experiment [4] relates to Venturia inaequalis. The experiment can be described thus: Sulphur + Difenoconazole on apple fruits incidence for Venturia inaequalis control. The class given is in vivo. Conditions: 4 days after last application. How it is done: as §1
The test system of experiment [5] is Alternaria solani. Put plainly: Activity against Alternaria solani in plates. The class given is cell-based. How it is done:
as §1

Experiment [6] concerns Zymoseptoria tritici. The experiment can be described thus: Wheat yield increase when applied for Zymoseptoria tritici control. The format is in vivo. How it is done:
(§2) The experiments were conducted by applying commercially available formulations of Sulphur and other mixture partners, alone or with their tank-mixed compositions. The compositions were diluted with water.
(§3) Each formulation with active ingredient is diluted with water and biological efficacy trials on target fungi are conducted.

The subject of experiment [7] is Venturia inaequalis. The experiment can be described thus: Apple fruits classes of damage for Venturia inaequalis control. Conditions: 14 days after last application; for Class 1 (%): class 1 = no damage; for Class 2 (%): class 2 = 2-3 spots per fruit; for Class 3 (%): class 3 = more than 3 spots per fruit. The class given is in vivo. The method, then: The fungicidal compounds A (sulphur) and B (mix partner) are formulated as equivalent compositions to eliminate the effects of differing formulation inerts on biological activity. Efficacy of the fungicidal compositions is evaluated with reference to a scale of 0% to 100% in comparison with untreated control plots. 0 means no control and 100 means complete control of the target disease.
as §2, §3

For experiment [8], the system named is Trialeurodes vaporariorum. The experiment can be described thus: Activity of Sulphur + Fluazinam against Trialeurodes vaporariorum plates. The class given is in vivo. The method, then: (§4) Colby's method is used to determine if synergy exists for a combination of active ingredients. According to Colby, the expected action (E) of active ingredients A+B is:
(§5) [formula] • where E=expected efficacy, A and B=the efficacy of two active ingredients A and B at a given dose.
(§6) When the percentage of control observed (O) for the combination is greater than the expected (E) percentage, there is a synergistic effect. The synergism ratio (R) is calculated as the ratio between the expected values and observed values.
(§7) Furthermore, the miticidal and insecticidal efficacy of the compositions are also evaluated with reference to a scale of 0% to 100% in comparison with untreated control plots. 0 means no control and 100 means complete control of the target pest.
as §2
(§8) Each formulation with active ingredient is diluted with water and biological efficacy trials on target pest are conducted.

The test system of experiment [9] is Tetranychus urticae. Put plainly: Activity of Sulphur + Fluazinam against Tetranychus urticae in plates. The format is in vivo. The method, then: as §4, §5, §6, §7, §2, §8

For the compound `CC1COC(Cn2cncn2)(c2ccc(Oc3ccc(Cl)cc3)cc2Cl)O1` (centres unmarked) [Difenoconazole], the “Observed % control (O)” value in experiment [1] (rate 25 g/ha) is 58.4%; in experiment [2] (rate 25 g/ha), 73.9%; in experiment [3] (rate 25 g/ha) it was 62.5%; in experiment [4] (rate 37.5 g/ha), 67.90%; in experiment [4] (rate 50 g/ha) it was 69.40%; in experiment [5] (rate 25 g/ha) it was 60.6%. Further, the “Yield increase versus the untreated (%)” value in experiment [6] (untreated = 100, rate 75 g/ha) was determined as 102.26%; in [6] (untreated = 100, rate 125 g/ha) it was 109.14%. Moreover, the “Class 1 (%)” value in experiment [7] (rate 37.5 g/ha) was determined as 92.5%; in experiment [7] (rate 50 g/ha) it was 93.5%. Further, the “Class 2 (%)” value in experiment [7] (rate 37.5 g/ha) stood at 5.2%; in experiment [7] (rate 50 g/ha), 3.3%. Moreover, the entries for the “Class 3 (%)” value in experiment [7] (rate 37.5 g/ha) and in experiment [7] (rate 50 g/ha) were 2.3% and 3.3%, respectively.
In the case of Fluazinam, the “Observed % control (O)” value in experiment [1] (rate 150 g/ha) worked out at 60.8%; in [2] (rate 150 g/ha), 36.3%; in [3] (rate 150 g/ha), 64.4%; in experiment [8] (200 g ai/ha) it was 21.7%; in experiment [8] (250 g ai/ha), 23.6%; in experiment [8] (300 g ai/ha), 24.1%. The “Observed % control (O)” value in experiment [8] (350 g ai/ha) is recorded as 33.6%; in experiment [5] (rate 150 g/ha) it was 57.5%; in experiment [9] (200 g ai/ha), 27.5%; in [9] (250 g ai/ha) it was 32.5%; in experiment [9] (300 g ai/ha), 32.5%; in experiment [9] (350 g ai/ha), 37.5%.

Values taken from patent US20260256144A1, “FUNGICIDAL MIXTURE COMPOSITION COMPRISING SULPHUR” (ADAMA MAKHTESHIM LTD., priority 2022, published 2026).
